The structures appear in SMILES notation.

This assay addresses T1, Adenosine receptor A1 (Bos taurus, UniProt P28190).
T1 sequence (P28190 whole entry): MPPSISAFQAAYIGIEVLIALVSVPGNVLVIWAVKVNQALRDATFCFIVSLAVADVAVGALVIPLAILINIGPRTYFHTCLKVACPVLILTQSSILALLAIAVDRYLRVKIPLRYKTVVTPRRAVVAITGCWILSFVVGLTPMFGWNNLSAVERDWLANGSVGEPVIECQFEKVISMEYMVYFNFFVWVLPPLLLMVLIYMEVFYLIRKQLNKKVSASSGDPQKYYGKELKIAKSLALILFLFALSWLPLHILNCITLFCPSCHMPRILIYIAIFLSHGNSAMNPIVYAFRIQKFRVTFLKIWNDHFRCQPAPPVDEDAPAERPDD
The experiment in a line: Displacement of [3H]phenylisopropyladenosine from adenosine A1 receptor in bovine cerebral cortex membrane. In kind it is cell membranes.

`COc1cc(-c2oc3c(OC)cc(CCCO)cc3c2C=O)ccc1O` came in with an IC50 of 17 nM.

For the origin of these results see ChEMBL document CHEMBL1158276, “Synthesis of 5-(3-Hydroxypropyl)-7-methoxy-2-(3-methoxy-4-hydroxyphenyl)-3- benzo[ b ]furancarbaldehyde, a Novel Adenosine A 1 Receptor Ligand from the Root of Salvia miltiorrhiza” (J Nat Prod, 1996).
